{"source": "patent US20120142730A1", "about": "(priority 2010, published 2012)", "origin": "cited, not measured here", "conditions": "Noseworthy, 2000; cited from earlier work"}
{"compound": "CN(C(=O)c1c(O)c2ccccc2n(C)c1=O)c1ccccc1", "note": "[roquinimex]", "values": [{"measurement": "Safety concerns previously seen", "result": "serositis, cardiovascular events and thrombosis"}]}
